Data reported in ChEMBL document CHEMBL4842348 (J Med Chem, 2021).
In brackets after ≈: the same amount, converted by molar mass.

Columns and labels:
[1] = Volume of distribution at steady state in CD1 mouse at 1 mg/kg, iv and 2 mg/kg, po; assay type: ADME, organism-based; details: in vivo, read-out: Vdss
[2] = Clearance in CD1 mouse at 1 mg/kg, iv and 2 mg/kg, po; assay type: ADME, organism-based; details: in vivo
[3] = Dose normalized AUC in CD1 mouse at 1 mg/kg, iv and 2 mg/kg, po; assay type: ADME, organism-based; details: in vivo
[4] = Lipophilicity, logD of the compound at pH 7.3 by HPLC analysis; assay type: physicochemical; details: buffer
[5] = Bioavailability in CD1 mouse at 1 mg/kg, iv and 2 mg/kg, po; assay type: ADME, organism-based; details: in vivo
[6] = MRT in CD1 mouse at 1 mg/kg, iv and 2 mg/kg, po; assay type: ADME, organism-based; details: in vivo
[7] = Metabolic stability in liver microsomes (unknown origin); assay type: ADME, Microsome
[8] = Dose normalized AUC in C57BL/6 mouse at 2 mg/kg, po; assay type: ADME, organism-based; details: in vivo
[9] = Oral bioavailability in C57BL/6 mouse at 2 mg/kg; assay type: ADME, organism-based; details: in vivo
[10] = Half life in C57BL/6 mouse at 1 mg/kg, iv; assay type: ADME, organism-based; details: in vivo
[11] = Total clearance in C57BL/6 mouse in whole blood at 1 mg/kg, iv; assay type: ADME, organism-based
[12] = Solubility of the compound in pH 7 phosphate buffer; assay type: physicochemical
[13] = Cmax in C57BL/6 mouse at 1 mg/kg, iv and 2 mg/kg, po; assay type: ADME, organism-based; parameters: dose 2 mg/kg; details: in vivo
[14] = Solubility of the compound in pH 7 phosphate buffer by shake-flask method; assay type: physicochemical
[15] = Terminal half life in C57BL/6-transgenic mouse expressing human CETP at 100 mg/kg, po qd treated for 7 days measured for 240 hrs; assay type: ADME, organism-based; details: C57BL/6-transgenic expressing human CETP, in vivo, time 7 day, read-out: beta t1/2 (converted)
[16] = Terminal half life in DIO NFR-transgenic mouse liver at 30 mg/kg, po once daily for 14 days; assay type: ADME, organism-based; details: time 14 day, read-out: beta t1/2 (converted)
[17] = Terminal half life in DIO NFR-transgenic mouse plasma at 30 mg/kg, po once daily for 14 days; assay type: ADME, organism-based; details: time 14 day, read-out: beta t1/2 (converted)
[18] = Terminal half life in DIO NFR-transgenic mouse adipose tissue at 30 mg/kg, po once daily for 14 days; assay type: ADME, organism-based; details: time 14 day, read-out: beta t1/2 (converted)
[19] = Terminal half life in C57BL/6-transgenic mouse expressing human CETP at 200 mg/kg, po qd treated for 7 days measured for 240 hrs; assay type: ADME, organism-based; details: in vivo, 168 h, time 7 day
[20] = Terminal half life in DIO NFR-transgenic mouse plasma at 100 mg/kg, po once daily for 14 days; assay type: ADME, organism-based; details: time 14 day, read-out: beta t1/2 (converted)
[21] = Half life in C57BL/6 mouse at 0.6 mg/kg, iv; assay type: ADME, organism-based; details: in vivo
[22] = Terminal half life in DIO NFR-transgenic mouse liver at 100 mg/kg, po once daily for 14 days; assay type: ADME, organism-based; details: in vivo, time 14 day
[23] = Terminal half life in DIO NFR-transgenic mouse adipose tissue at 100 mg/kg, po once daily for 14 days; assay type: ADME, organism-based; details: in vivo, time 14 day

Question: Which results are given for COc1cc(F)c(-c2ccc(C(=O)O)cc2C)cc1-c1ccc(C(F)(F)F)cc1[C@@H]1CC[C@H]2[C@@H](c3cc(C(F)(F)F)cc(C(F)(F)F)c3)OC(=O)N12?
Answer: Vd [1]: 2.3 L/kg; clearance [2]: 6.6 mL/min/kg; AUC/dose [3]: 3.4 µM·h; logD [4]: 5.5; bioavailability [5]: 60%; MRT [6]: 5.8 h

Question: Which results are given for COc1ncc(-c2c(C)cc(C(=O)O)cc2C)cc1-c1ccc(C(F)(F)F)cc1[C@@H]1CC[C@H]2[C@@H](c3cc(F)cc(C(F)(F)F)c3)OC(=O)N12?
Answer: logD [4]: 4.8; Stabilty [7]: Unstable

Question: Which logD [4] does the source give for COc1ccc(-c2ccc(C(=O)O)cc2C)cc1-c1cc(C(C)C)c(N(C)C)nc1[C@@H]1CC[C@H]2[C@@H](c3cc(C(F)(F)F)cc(C(F)(F)F)c3)OC(=O)N12 here?
Answer: 6.6

Question: And the Stabilty [7]?
Answer: Unstable

Question: Which Stabilty [7] does the source give for COc1cc(F)c(-c2ccc(C(=O)O)cc2C)cc1-c1ccc(C(F)(F)F)cc1[C@@H]1CC[C@H]2[C@@H](c3cc(C)cc(C(F)(F)F)c3)OC(=O)N12 here?
Answer: Unstable

Question: For COc1ccc(-c2ccc(C(=O)O)cc2C)cc1-c1ccc(C(F)(F)F)cc1CN1C(=O)O[C@H](c2cc(C(F)(F)F)cc(C(F)(F)F)c2)[C@@H]1C, which AUC/dose [8] is on record?
Answer: 0.86 µM·kg·h/mg

Question: And the bioavailability [9]?
Answer: 65%

Question: And the half-life [10]?
Answer: 150 min

Question: And the clearance [11]?
Answer: 18 mL/min/kg

Question: What about the solubility [12] of the same compound?
Answer: 16 µM (≈ 11.4 µg/mL)

Question: And the Cmax [13]?
Answer: 430 nM

Question: Which AUC/dose [8] does the source give for Cc1cc(C(=O)O)ccc1-c1ccc(Cl)c(-c2ccc(C(F)(F)F)cc2CN2C(=O)O[C@H](c3cc(C(F)(F)F)cc(C(F)(F)F)c3)[C@@H]2C)c1 here?
Answer: 1.8 µM·kg·h/mg

Question: And the logD [4]?
Answer: 6.2

Question: What about the bioavailability [9] of the same compound?
Answer: 43%

Question: And the solubility thermodynamic [14]?
Answer: 43 µM (≈ 30.8 µg/mL)

Question: What about the half-life [15] of the same compound?
Answer: 3.46 days

Question: What about the half-life [10] of the same compound?
Answer: 3720 min

Question: What about the clearance [11] of the same compound?
Answer: 5.6 mL/min/kg

Question: And the solubility [12]?
Answer: 43 µM (≈ 30.8 µg/mL)

Question: What about the Cmax [13] of the same compound?
Answer: 390 nM

Question: What does the source list for COc1ccc(C(C)C)cc1-c1ccc(C(F)(F)F)cc1CN1C(=O)O[C@H](c2cc(C(F)(F)F)cc(C(F)(F)F)c2)[C@@H]1C?
Answer: AUC/dose [8]: 0.29 µM·kg·h/mg; logD [4]: > 6.9; bioavailability [9]: 17%; solubility thermodynamic [14]: < 2 µM; half-life [10]: 294 min; clearance [11]: 19 mL/min/kg; solubility [12]: < 1 µM; Cmax [13]: 160 nM

Question: Which logD [4] does the source give for COc1ncc(-c2ccc(C(=O)O)cc2C)cc1-c1ccc(C(F)(F)F)nc1CN1C(=O)O[C@H](c2cc(C(F)(F)F)cc(C(F)(F)F)c2)[C@@H]1C here?
Answer: 5.1

Question: And the solubility thermodynamic [14]?
Answer: 9 µM (≈ 6.42 µg/mL)

Question: What does the source list for COc1ccc(-c2ccc(C(=O)O)cc2C)cc1-c1cnc(N2CC(F)C2)nc1CN1C(=O)O[C@H](c2cc(C(F)(F)F)cc(C(F)(F)F)c2)[C@@H]1C?
Answer: logD [4]: 4.6; solubility thermodynamic [14]: 8 µM (≈ 5.75 µg/mL)

Question: What does the source list for COc1ccc(-c2ccc(C(=O)O)cc2C)cc1-c1cnc(N(C)C)nc1[C@@H]1CC[C@H]2[C@@H](c3cc(C(F)(F)F)cc(C(F)(F)F)c3)OC(=O)N12?
Answer: Vd [1]: 5.6 L/kg; clearance [2]: 33 mL/min/kg; AUC/dose [3]: 0.7 µM·h; bioavailability [5]: 140%; MRT [6]: 2.8 h

Question: For COc1ccc(-c2ccc(C(=O)O)cc2C)cc1-c1cnc(N(C)C)nc1CN1C(=O)O[C@H](c2cc(C(F)(F)F)cc(C(F)(F)F)c2)[C@@H]1C, which logD [4] is on record?
Answer: 4.8

Question: What about the solubility thermodynamic [14] of the same compound?
Answer: 43 µM (≈ 29.6 µg/mL)

Question: Which results are given for COc1ncc(-c2cc(-c3ccc(C(=O)O)cc3C)ccc2OC)c(CN2C(=O)O[C@H](c3cc(C(F)(F)F)cc(C(F)(F)F)c3)[C@@H]2C)n1?
Answer: logD [4]: 4.2; solubility thermodynamic [14]: 52 µM (≈ 35.1 µg/mL)

Question: For Cc1cc(C)c2c(c1)[C@@H](N(Cc1cc(C(F)(F)F)cc(C(F)(F)F)c1)c1nnn(C)n1)CCCN2C[C@H]1CC[C@H](C(=O)O)CC1 [EVACETRAPIB], which half-life at […] [16] is on record?
Answer: 1080 min

Question: And the half-life at […] [17]?
Answer: 426 min

Question: What about the half-life at […] [18] of the same compound?
Answer: 78 min

Question: What does the source list for COc1cc(F)c(C(C)C)cc1-c1ccc(C(F)(F)F)cc1CN1C(=O)O[C@H](c2cc(C(F)(F)F)cc(C(F)(F)F)c2)[C@@H]1C [ANACETRAPIB]?
Answer: AUC/dose [8]: 0.36 µM·kg·h/mg; beta t1/2 [19]: 121 h; logD [4]: > 6.9; half-life at […] [20]: 1620 min; half-life [21]: 216 min; solubility [12]: < 1 µM; beta t1/2 [22]: 49 h; beta t1/2 [23]: 150 h
